Reference: patent publication US20220339178A1, “COMPOSITIONS AND METHODS FOR COGNITIVE PROTECTION OF POLLINATORS AGAINST PESTICIDES” (priority 2019, published 2022)

Tests used:
Drosophila melanogaster = test: Motor activity (negative geotropic response) test in flies: rutin vs imidacloprid; type: in vivo
Experimental: Standard methods were relied on to test motor activity and motor impairments in Drosophila melanogaster (Jimenez-Del-Rio et al. 2010. Neurochem Res 35:227-238). The method relies on the negative geotropic response (i.e. preference to walk up when standing on a wall) of insects. Four-day-old (post eclosion) D. melanogaster females were randomly assigned to one of four treatments: Control (fed on 5% sugar-water), Rutin 0.1 (fed on a solution 0.1 μM rutin in 5% sugar-water), Rutin 1 (fed on a solution 1 μM rutin in 5% sugar-water), Rutin 10 (fed on a solution 10 uM rutin in 5% sugar-water). After three days flies from each group were randomly assigned to one of two treatments: 5% sugar-water or 0.1 μM imid in 5% sugar-water. Thus, flies were in one of eight treatments: Control, Imid, Rut 0.1, Rut 0.1+Imid, Rut 1, Rut 1+Imid, Rut 10, Rut 10+Imid. Flies were exposed to their specific treatment for 22 h.
Following standard methods, flies were transferred to a clean vial and a threshold of 5 cm from the bottom was set on the vial. The bottom of the vial was knocked on the table to assure all flies were moved to the bottom. The number of flies that crossed the threshold within 6 seconds were counted. Data were analyzed using a Chi-square with specific predictions (one-tail tests) for planned comparisons. Error associated with multiple comparisons was corrected using the False Discovery Rate-method (two stage sharpen method).

[1] = test system: Honey bee foragers (Apis mellifera scutellata); test: Classical conditioning of PER in honey bees: rutin, kaempferol, p-coumaric acid vs fipronil; type: in vivo
Experimental: Honey bee foragers (Apis mellifera scutellata) were captured from established hives at the Apiary of the Universidad del Rosario (Bogota, Colombia) between 08:00 h and 10:00 h. Bees were ice-anesthetized and harnessed in plastic tubes and maintained under laboratory conditions for the duration of the experiment (five days). Food was provided twice a day in a volumen of 10 μL and varied in composition according to experimental treatments.
Bees were randomly allocated to one of the following treatments administered twice a day for three consecutive days (all concentrations are final):
Control: 1M sucrose water (10 μL)
Rut: 1 μM rutin (Sigma-Aldrich: R5143)-1M sugar water (10 μL)
Kaemp:131 μM kaempferol (Sigma-Aldrich:K0133)+1M sugar water (10 μL)
p-Cou A: 200 μM p-coumaric acid (Sigma-Aldrich:C9008) diluted in 1M sugar water (10 μL)
Mix: 1 μM rutin, 131 μM kaempferol and 200 μM p-Coumaric acid): Bees fed with composition diluted in 1M sugar water (10 μL) fed twice a day for three days
On the fourth day, bees were randomly assigned to one of two treatments three hours before training:
Fipronil: 10 μL of 228 nM Fipronil (Astuto Invesa) in 1M sucrose water
Sucrose solution: 10 μL 1M sucrose water
Thus, bees belong to one of ten treatments: Control, Kaemp, Rut, p-Cou A, Mix, Fipro, Kaemp+Fipro, Rut+Fipro, p-Cou A+Fipro, Mix+Fipro.
Bees were trained using classical conditioning of the proboscis extension response (PER). Briefly, bees received a soft current of clean air for 15 seconds to allow bees to accommodate. Then a soft current of 1-hexanol (Sigma-Aldrich: 471402) was injected for 10 seconds. Six seconds after injection of 1-hexanol, one of the antennae was stimulated with sugar water (1.5M), which leads to the reflexive extension of the proboscis, and the bee was allowed to drink for 4 seconds. Thus, the reward and the stimulus overlapped for four seconds. This sequence, recognized as a training trial, was repeated eleven times. Time was determined using a metronome (2 Hz). Memory retention was tested 24 hours after the eleven training trials. […] 12 bees were trained each session. Training was conducted by an experimenter blind to treatment.
Learning for each individual was quantified as the number of conditioned PER responses across the trials. Thus, for each bee a learning score between zero and ten (0-10) was recorded.
Multiple comparisons were then run comparing learning score relative to Control bees using a non-parametric one or two-tailed Steel Method depending upon predictions. These comparisons informed us about the predicted impairment produced by the insecticides, the predicted innocuous effect of the flavonoid and the potential level of protection. Error due to multiple comparisons was controlled using the False Discovery Rate method (FDR-two stage sharpened method). In all cases corrected p-values (q-values) are presented.
Memory retention was quantified as a nominal variable (yes/no). Data were compared across treatments using a Chi-square test, followed by multiple comparisons of all treatments vs. Control. Error due to multiple comparisons was controlled using the FDR as indicated above. In all cases corrected p-values (q values) are presented.
Latency was quantified as a continuous variable between 0.5 s and 10 s. Data were compared across treatments using an ANOVA following a Log transformation to normalize the distribution (Shapiro-Wilk W Test after log transformation: p>0.05 for all treatments for the null hypothesis that data is from a normal distribution), followed by multiple comparisons between all treatments and the Control group (Dunnett's method). Error due to multiple comparisons was controlled using the FDR method as indicated above. In all cases corrected p-values (q-values) are presented.

| Compound | motor performance relative to flies in the control group (Drosophila melanogaster; 0.1 μM imid in 5% sugar-water for 22 h, flies crossing 5 cm threshold within 6 seconds) | motor performance relative to flies prophylactically receiving 0.1 μM rutin (Drosophila melanogaster; comparator rutin 0.1 μM then imid) | motor performance relative to flies prophylactically receiving 1 NM rutin (Drosophila melanogaster; comparator rutin 1 μM then imid) | motor performance relative to flies prophylactically receiving 10 μM rutin (Drosophila melanogaster; comparator rutin 10 μM then imid) | protection against imidacloprid neuromotor impairment (Drosophila melanogaster; flies fed rutin 0.1, 1 or 10 μM for three days before 0.1 μM imid) | latency of response relative to Control bees ([1]; Dunnett's method) | learning score relative to Control bees ([1]; honey bees, score 0-10, 1 μM rutin, 131 μM kaempferol, 200 μM p-coumaric acid or Mix twice a day for three days, 228 nM fipronil 10 μL three hours before training) |
| --- | --- | --- | --- | --- | --- | --- | --- |
| O=[N+]([O-])NC1=NCCN1Cc1ccc(Cl)nc1 [Imidacloprid] | lower performance | significantly lower | significantly lower | significantly lower | – | – | – |
| C[C@@H]1O[C@@H](OC[C@H]2O[C@@H](Oc3c(-c4ccc(O)c(O)c4)oc4cc(O)cc(O)c4c3=O)[C@H](O)[C@@H](O)[C@@H]2O)[C@H](O)[C@H](O)[C@H]1O [Rutin] | – | – | – | – | protected against this impairment | not significantly different from Control | not significantly different from Control bees |
